Data as given in ChEMBL document CHEMBL1221226 (Nat Chem Biol, 2009).
Positions of bridges follow the written chain, without caps; N, C: chain ends. Residues, ends and D or L forms follow the SMILES beside them. *: point of attachment. X1 = CC(CN[C@@H](Cc1cnc[nH]1)C(=O)O)C(=O)*

Columns and labels:
Glucagon receptor = Glucagon receptor (Homo sapiens, UniProt P47871); experiment: Agonist activity at GCGR expressed in HEK293 cells assessed as stimulation of cAMP production by luciferase reporter gene assay; assay type: functional, cell-based
[1] = target: Glucagon-like peptide 1 receptor (Homo sapiens, UniProt P43220); experiment: Agonist activity at GLP1R expressed in HEK293 cells assessed as stimulation of cAMP production by luciferase reporter gene assay; assay type: functional, cell-based
Sequence of Glucagon-like peptide 1 receptor (P43220 whole entry): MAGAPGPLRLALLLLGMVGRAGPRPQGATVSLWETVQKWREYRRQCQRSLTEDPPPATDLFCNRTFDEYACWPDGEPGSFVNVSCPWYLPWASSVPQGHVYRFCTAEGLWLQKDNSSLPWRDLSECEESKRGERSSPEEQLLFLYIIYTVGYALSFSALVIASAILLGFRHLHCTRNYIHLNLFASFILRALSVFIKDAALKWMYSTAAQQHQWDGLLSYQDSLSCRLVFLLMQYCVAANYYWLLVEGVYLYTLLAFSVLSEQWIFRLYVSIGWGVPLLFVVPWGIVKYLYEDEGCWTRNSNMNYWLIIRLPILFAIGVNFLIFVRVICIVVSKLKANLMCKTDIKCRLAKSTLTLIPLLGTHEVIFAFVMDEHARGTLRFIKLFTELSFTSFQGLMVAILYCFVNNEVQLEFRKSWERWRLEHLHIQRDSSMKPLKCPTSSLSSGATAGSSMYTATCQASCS

Sequence of Glucagon receptor (P47871 whole entry): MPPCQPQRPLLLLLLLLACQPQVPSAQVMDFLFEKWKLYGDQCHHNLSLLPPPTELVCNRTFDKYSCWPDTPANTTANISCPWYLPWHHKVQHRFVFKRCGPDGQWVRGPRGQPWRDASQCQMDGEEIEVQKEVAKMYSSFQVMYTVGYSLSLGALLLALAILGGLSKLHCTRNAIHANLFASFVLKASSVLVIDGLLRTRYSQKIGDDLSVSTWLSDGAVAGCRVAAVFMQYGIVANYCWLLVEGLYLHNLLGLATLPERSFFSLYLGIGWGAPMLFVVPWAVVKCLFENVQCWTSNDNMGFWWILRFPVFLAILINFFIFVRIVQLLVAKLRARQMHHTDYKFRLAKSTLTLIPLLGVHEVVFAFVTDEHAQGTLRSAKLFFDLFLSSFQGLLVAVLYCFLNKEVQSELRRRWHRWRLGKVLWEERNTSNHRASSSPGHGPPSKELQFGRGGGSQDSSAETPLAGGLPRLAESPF

Row | SMILES | EC50 (Glucagon receptor; hek293) [pM] | EC50 ([1]; hek293) [pM] | EC50 (Glucagon receptor) [pM] | EC50 [1] [pM]
1 | CSCC[C@H](NC(=O)[C@H](CC(C)C)NC(=O)[C@H](Cc1c[nH]c2ccccc12)NC(=O)[C@H](CCC(N)=O)NC(=O)[C@@H](NC(=O)[C@H](Cc1ccccc1)NC(=O)[C@H](CC(=O)O)NC(=O)[C@H](CCC(N)=O)NC(=O)[C@H](C)NC(=O)[C@H](CCCNC(=N)N)NC(=O)[C@H](CCCNC(=N)N)NC(=O)[C@H](CCC(=O)O)NC(=O)[C@H](CCC(=O)O)NC(=O)[C@H](CC(C)C)NC(=O)[C@H](Cc1ccc(O)cc1)NC(=O)[C@H](CO)NC(=O)[C@H](CO)NC(=O)[C@@H](NC(=O)[C@H](CC(=O)O)NC(=O)[C@H](CO)NC(=O)[C@@H](NC(=O)[C@H](Cc1ccccc1)NC(=O)[C@@H](NC(=O)CNC(=O)[C@H](CCC(=O)O)NC(=O)[C@H](C)NC(=O)[C@@H](N)Cc1cnc[nH]1)[C@@H](C)O)[C@@H](C)O)C(C)C)C(C)C)C(=O)N[C@@H](CC(N)=O)C(=O)N[C@H](C(=O)O)[C@@H](C)O (H-HAEGTFTSDVSSYLEERRAQDFVQWLMNT-OH) | 50000 | 180 |  | 
2 | CC[C@H](C)[C@H](NC(=O)[C@H](Cc1ccccc1)NC(=O)[C@H](CCC(=O)O)NC(=O)[C@H](CCCCN)NC(=O)[C@H](C)NC(=O)[C@H](C)NC(=O)[C@H](CCC(N)=O)NC(=O)[C@H](CCC(=O)O)NC(=O)[C@H](CC(=O)O)NC(=O)[C@H](CC(C)C)NC(=O)[C@H](Cc1ccc(O)cc1)NC(=O)[C@H](CCCCN)NC(=O)[C@H](CO)NC(=O)[C@H](Cc1ccc(O)cc1)NC(=O)[C@H](CC(=O)O)NC(=O)[C@H](CO)NC(=O)[C@@H](NC(=O)[C@H](Cc1ccccc1)NC(=O)[C@@H](NC(=O)CNC(=O)[C@H](CCC(N)=O)NC(=O)[C@H](CO)NC(=O)[C@@H](N)Cc1cnc[nH]1)[C@@H](C)O)[C@@H](C)O)C(=O)N[C@@H](C)C(=O)N[C@@H](Cc1c[nH]c2ccccc12)C(=O)N[C@@H](CC(C)C)C(=O)N[C@@H](CCSC)C(=O)N[C@@H](CC(N)=O)C(=O)N[C@H](C(=O)O)[C@@H](C)O (H-HSQGTFTSDYSKYLDEQAAKEFIAWLMNT-OH) | 68 | 26 |  | 
3 | CC[C@H](C)[C@H](NC(=O)[C@H](Cc1ccccc1)NC(=O)[C@H](CCC(=O)O)NC(=O)[C@H](CCCCN)NC(=O)[C@H](C)NC(=O)[C@H](C)NC(=O)[C@H](CCC(N)=O)NC(=O)[C@H](CCC(=O)O)NC(=O)[C@H](CC(=O)O)NC(=O)[C@H](CC(C)C)NC(=O)[C@H](Cc1ccc(O)cc1)NC(=O)[C@H](CCCCN)NC(=O)[C@H](CO)NC(=O)[C@H](Cc1ccc(O)cc1)NC(=O)[C@H](CC(=O)O)NC(=O)[C@H](CO)NC(=O)[C@@H](NC(=O)[C@H](Cc1ccccc1)NC(=O)[C@@H](NC(=O)CNC(=O)[C@H](CCC(N)=O)NC(=O)[C@H](CO)NC(=O)[C@@H](N)Cc1cnc[nH]1)[C@@H](C)O)[C@@H](C)O)C(=O)N[C@@H](C)C(=O)N[C@@H](Cc1c[nH]c2ccccc12)C(=O)N[C@@H](CC(C)C)C(=O)N[C@H](C(=O)N[C@@H](CCCCN)C(=O)NCC(=O)O)C(C)C (H-HSQGTFTSDYSKYLDEQAAKEFIAWLVKG-OH) | 470 | 15 |  | 

More lines, now with the values ahead:

Row | EC50 (Glucagon receptor; hek293) [pM] | EC50 ([1]; hek293) [pM] | EC50 (Glucagon receptor) [pM] | EC50 [1] [pM] | SMILES
4 |  |  | 590 | 14 | CC[C@H](C)[C@H](NC(=O)[C@H](Cc1ccccc1)NC(=O)[C@H](CCC(=O)O)NC(=O)[C@H](CCCCN)NC(=O)[C@H](C)NC(=O)[C@H](C)NC(=O)[C@H](CCC(N)=O)NC(=O)[C@H](CCC(=O)O)NC(=O)[C@H](CC(=O)O)NC(=O)[C@H](CC(C)C)NC(=O)[C@H](Cc1ccc(O)cc1)NC(=O)[C@H](CCCCN)NC(=O)[C@H](CO)NC(=O)[C@H](Cc1ccc(O)cc1)NC(=O)[C@H](CC(=O)O)NC(=O)[C@H](CO)NC(=O)[C@@H](NC(=O)[C@H](Cc1ccccc1)NC(=O)[C@@H](NC(=O)CNC(=O)[C@H](CCC(N)=O)NC(=O)C(C)CN[C@@H](Cc1cnc[nH]1)C(=O)O)[C@@H](C)O)[C@@H](C)O)C(=O)N[C@@H](C)C(=O)N[C@@H](Cc1c[nH]c2ccccc12)C(=O)N[C@@H](CC(C)C)C(=O)N[C@@H](CCSC)C(=O)N[C@@H](CC(N)=O)C(=O)N[C@H](C(=O)O)[C@@H](C)O (stereo not given in full) (X1-QGTFTSDYSKYLDEQAAKEFIAWLMNT-OH)
5 |  |  | 55 | 13 | CC[C@H](C)[C@H](NC(=O)[C@H](Cc1ccccc1)NC(=O)[C@H](CCC(=O)O)NC(=O)[C@@H]1CCCCNC(=O)CC[C@H](NC(=O)[C@H](CC(=O)O)NC(=O)[C@H](CC(C)C)NC(=O)[C@H](Cc2ccc(O)cc2)NC(=O)[C@H](CCCCN)NC(=O)[C@H](CO)NC(=O)[C@H](Cc2ccc(O)cc2)NC(=O)[C@H](CC(=O)O)NC(=O)[C@H](CO)NC(=O)[C@@H](NC(=O)[C@H](Cc2ccccc2)NC(=O)[C@@H](NC(=O)CNC(=O)[C@H](CCC(N)=O)NC(=O)C(C)CN[C@@H](Cc2cnc[nH]2)C(=O)O)[C@@H](C)O)[C@@H](C)O)C(=O)N[C@@H](CCC(N)=O)C(=O)N[C@@H](C)C(=O)N[C@@H](C)C(=O)N1)C(=O)N[C@@H](C)C(=O)N[C@@H](Cc1c[nH]c2ccccc12)C(=O)N[C@@H](CC(C)C)C(=O)N[C@@H](CCSC)C(=O)N[C@@H](CC(N)=O)C(=O)N[C@H](C(=O)O)[C@@H](C)O (stereo not given in full) (X1-QGTFTSDYSKYLDEQAAKEFIAWLMNT-OH; lactam 14-18)
